{"source": "paper PMC10059083", "about": "“Design, Synthesis, and Biological Evaluation of Novel Hydroxamic Acid-Based Organoselenium Hybrids” (Pharmaceuticals, 2023)", "key": {"S. aureus [1]": {"system": "S. aureus", "experiment": "Agar diffusion assay, S. aureus", "assay_type": "cell-based", "settings": "Staphylococcus aureus; 6-mm disks soaked with 20 μM of the OSe agents; read-out: S. aureus ZID (inhibition zone diameter)"}, "C. albicans": {"system": "C. albicans", "experiment": "Agar diffusion assay, C. albicans", "assay_type": "cell-based, Candida albicans"}, "HepG2 cells": {"system": "HepG2 cells", "experiment": "MTT antiproliferative assay, HepG2 cells", "assay_type": "cell-based", "source_text": "Recently, OSe agents have attracted interest due to their potential chemoprotective and antitumor properties. We have developed several OSe compounds with promising antioxidant, antimicrobial, and antitumor properties. Therefore, we estimated the OSe agents’ antiproliferative activities against different cancer cells, i.e., MCF-7 and HepG2 cells and healthy lung fibroblast WI-38 cells, using the MTT assay. The drug doxorubicin was employed as the standard. The corresponding therapeutic indices (TI) are described as the proportion of the WI38 cells IC50 to the IC50 of the cancer cell (e.g., MCF-7 and HepG2) (Table 1).\n(§1) The products’ anticancer activity was examined using the MTT assay against breast (MCF-7) carcinoma cells, liver (HepG2), and normal WI-38 cells, following the previously reported method. Experimental details can be found in the Supplementary Materials.\n(§2) 1.1. The biological assays\n(§3) 1.1.1. The anticancer activity\n(§4) The breast adenocarcinoma (MCF-7), Hepatocellular carcinoma (HEPG-2), and normal fibroblast (WI-38) cells were obtained from ATCC via Holding company for biological products and vaccines (VACSERA), Cairo, Egypt. The reagents […] medium, MTT, DMSO, and fetal bovine serum was obtained from Sigma Aldrich. Dulbecco’s modified Eagle’s medium was used as the culture medium for the cells, and the cytotoxicity was evaluated using the reported MTT assay. Doxorubicin was used as the positive reference, and the IC50 values were obtained from the corresponding dose-response curve.\n(§5) This colorimetric assay is based on converting the yellow tetrazolium bromide (MTT) to a purple formazan derivative by mitochondrial succinate dehydrogenase in viable cells. Cell lines were cultured in […] medium with 10% fetal bovine serum. Antibiotics added were 100 units/ml penicillin and 100µg/ml streptomycin at 37 C in a 5% Co2 incubator. The cell lines were seeded in a 96-well plate at a density of 1.0x10^4 cells/well. at 37 C for 48 h under 5% Co2. After incubation, the cells were treated with different concentrations of compounds and incubated for 13 […]\nFinally, dimethyl sulfoxide (DMSO) in the volume of 100 µl is added to each well to dissolve the purple formazan formed. The colorimetric assay is measured and recorded at an absorbance of 570 nm using a plate reader (EXL 800, USA). The percentage of the relative cell viability was calculated as (A570 of treated samples/A570 of the untreated sample) X 100. […]"}, "MCF-7 cells": {"system": "MCF-7 cells", "experiment": "MTT antiproliferative assay, MCF-7 cells", "assay_type": "cell-based", "source_text": "Recently, OSe agents have attracted interest due to their potential chemoprotective and antitumor properties. […] Therefore, we estimated the OSe agents’ antiproliferative activities against different cancer cells, i.e., MCF-7 and HepG2 cells and healthy lung fibroblast WI-38 cells, using the MTT assay. The drug doxorubicin was employed as the standard. The corresponding therapeutic indices (TI) are described as the proportion of the WI38 cells IC50 to the IC50 of the cancer cell (e.g., MCF-7 and HepG2) (Table 1).\nas §1, §2, §3, §4, §5\nFinally, dimethyl sulfoxide (DMSO) in the volume of 100 µl is added to each well to dissolve the purple formazan formed. The colorimetric assay is measured and recorded at an absorbance of 570 […]\nThe percentage of the relative cell viability was calculated as (A570 of treated samples/A570 of the untreated sample) X 100. […]"}, "S. aureus [2]": {"system": "S. aureus", "experiment": "Agar diffusion assay, S. aureus", "assay_type": "cell-based, Staphylococcus aureus", "parameters": "concentration or dose not given beside the values", "settings": "ratio of inhibition zone of compound to that of positive control (ampicillin)", "source_text": "(§6) The encouraging antitumor properties of the OSe compounds motivated us to evaluate their corresponding antimicrobial activities against the C. albicans fungal strain, S. aureus Gram-positive bacteria, and E. coli Gram-negative bacteria. Therefore, we applied the agar diffusion and minimum inhibitory concentration (MIC) methods using clotrimazole antifungal and ampicillin antibacterial drugs as standards.\nThe products’ antimicrobial properties were examined according to the previously reported method, via agar well diffusion assay against E. coli, S. aureus, and C. albicans. A microdilution method was also used to record MICs (M), following the previously reported procedure. Experimental details can be found in the Supplementary Materials. […]\n(§7) 1.1.2. The antimicrobial activity\nThe antimicrobial activities of the OSe compounds were evaluate d against C. albicans yeast as well as E. coli gram-negative and S. aureus gram-positive bacteria employing the agar well diffusion assay.\nBriefly, a concentration of 1 mM was prepared for each compound by dissolving in DMSO. Paper discs of standard size […] were sterilized in an autoclave and soaked in 9 µL of the test compounds, and placed in the Petri dishes, which in turn contain a nutrient media (agar 9 g, peptone 5 g, and beef extract 3 g) seeded with the dedicated strain. Incubation lasted for 13 h at 36 0C.\nExperiments were replicated three times and the antifungal clotrimazole and antibiotic ampicillin […]"}, "E. coli [3]": {"system": "E. coli", "experiment": "MIC by microdilution, E. coli", "assay_type": "cell-based", "settings": "Escherichia coli; microdilution method", "source_text": "as §6\n(§8) The products’ antimicrobial properties were examined according to the previously reported method, via agar well diffusion assay against E. coli, S. aureus, and C. albicans. A microdilution method was also used to record MICs (M), following the previously reported procedure. Experimental details can be found in the Supplementary Materials.\nBriefly, a concentration of 1 mM was prepared for each compound by dissolving in DMSO. Paper discs of standard size […] were sterilized in an autoclave and soaked in 9 µL of the test compounds, and placed in the Petri dishes, which in turn contain a nutrient media (agar 9 g, peptone 5 g, and beef extract 3 g) seeded with the dedicated strain. Incubation lasted for 13 h at 36 0C. […]"}, "E. coli [4]": {"system": "E. coli", "experiment": "Agar diffusion assay, E. coli", "assay_type": "cell-based, Escherichia coli", "source_text": "as §6, §8\n1.1. […]\nas §7\nThe antimicrobial activities of the OSe compounds were evaluate d against C. albicans yeast as well as E.\ncoli gram-negative and S. aureus gram-positive bacteria employing the agar well diffusion assay. […]\n5 g, and beef extract 3 g) seeded with the dedicated strain. Incubation lasted for 13 h at 36 0C.\nExperiments were replicated three times and the antifungal clotrimazole and antibiotic ampicillin\n1.1.3. […]"}}}
{"smiles": "Nc1ccc([Se]CC(=O)NOCc2ccccc2)cc1", "note": "[Compound 8, 2-((4-Aminophenyl)selanyl)-N-(benzyloxy)acetamide]", "values": [{"measurement": "zone of inhibition at 20 µM", "setting": "S. aureus [1]", "value": 19, "unit": "mm"}, {"measurement": "zone of inhibition at 20 µM", "setting": "C. albicans; Candida albicans, read-out: C. albicans ZID (inhibition zone diameter)", "value": 22, "unit": "mm"}, {"measurement": "C. albicans IA% (activity index)", "setting": "C. albicans; ratio of inhibition zone of compound to that of positive control (clotrimazole)", "value": 91.7, "unit": "%"}, {"measurement": "IC50", "setting": "HepG2 cells; Homo sapiens, HepG2, 24 h, read-out: HepG2 IC50", "value": "7.57 ± 0.5", "unit": "µM"}, {"measurement": "HepG2 TI (therapeutic index)", "setting": "HepG2 cells; ratio of IC50 against WI38 cells to IC50 against HepG2 cells", "value": 3.6}, {"measurement": "IC50", "setting": "MCF-7 cells; Homo sapiens, MCF7, 24 h, read-out: MCF7 IC50", "value": "9.86 ± 0.7", "unit": "µM"}, {"measurement": "MCF7 TI (therapeutic index)", "setting": "MCF-7 cells; ratio of IC50 against WI38 cells to IC50 against MCF-7 cells", "value": 2.8}, {"measurement": "S. aureus IA% (activity index)", "setting": "S. aureus [2]", "value": 90.5, "unit": "%"}, {"measurement": "MIC", "setting": "E. coli [3]", "value": 8, "unit": "µM"}, {"measurement": "E. coli ZID (inhibition zone diameter)", "setting": "E. coli [4]; 6-mm disks soaked with 20 μM of the OSe agents", "value": 16, "unit": "mm"}, {"measurement": "E. coli IA% (activity index)", "setting": "E. coli [4]; ratio of inhibition zone of compound to that of positive control (ampicillin)", "value": 69.6, "unit": "%"}]}
